What all share (assay): Kinase binding assay (kinase-tagged T7 phage, affinity beads, qPCR), Kd
In general terms: Quantitative PCR measures a nucleic acid by following its amplification.

The target in one experiment is T1, FGFR4 (Homo sapiens, UniProt P22455).
T1 construct: made in house; host or cells: E. coli (BL21-derived), T7 phage
Conditions: read-out: FGFR4 (Kd nM). An outline of the steps:
(§1)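 Phage-tagged kinase capture on small-molecule affinity resin, compound competition, qPCR quantitation; Kd from Levenberg-Marquardt Hill fit.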

Another experiment concerns the target T2, FGFR3 (V555M) (Homo sapiens, UniProt P22607, V555M).
T2 construct: made in house; host or cells: E. coli (BL21-derived), T7 phage
Conditions: V555M mutant; read-out: FGFR3 (V555M) (Kd nM). An outline of the steps: as §1

The next experiment concerns the target T3, FGFR3 (Homo sapiens, UniProt P22607).
T3 construct: made in house; host or cells: E. coli (BL21-derived), T7 phage
Particulars: read-out: FGFR3 (Kd nM). An outline of the steps: as §1

Another experiment concerns the target T4, FGFR1 (Homo sapiens, UniProt P11362).
T4 construct: made in house; host or cells: E. coli (BL21-derived), T7 phage
Particulars: read-out: FGFR1 (Kd nM). The gist of the method: as §1

The target of another experiment is T5, FGFR2 (Homo sapiens, UniProt P21802).
T5 construct: made in house; host or cells: E. coli (BL21-derived), T7 phage
T5 sequence (P21802 22-821): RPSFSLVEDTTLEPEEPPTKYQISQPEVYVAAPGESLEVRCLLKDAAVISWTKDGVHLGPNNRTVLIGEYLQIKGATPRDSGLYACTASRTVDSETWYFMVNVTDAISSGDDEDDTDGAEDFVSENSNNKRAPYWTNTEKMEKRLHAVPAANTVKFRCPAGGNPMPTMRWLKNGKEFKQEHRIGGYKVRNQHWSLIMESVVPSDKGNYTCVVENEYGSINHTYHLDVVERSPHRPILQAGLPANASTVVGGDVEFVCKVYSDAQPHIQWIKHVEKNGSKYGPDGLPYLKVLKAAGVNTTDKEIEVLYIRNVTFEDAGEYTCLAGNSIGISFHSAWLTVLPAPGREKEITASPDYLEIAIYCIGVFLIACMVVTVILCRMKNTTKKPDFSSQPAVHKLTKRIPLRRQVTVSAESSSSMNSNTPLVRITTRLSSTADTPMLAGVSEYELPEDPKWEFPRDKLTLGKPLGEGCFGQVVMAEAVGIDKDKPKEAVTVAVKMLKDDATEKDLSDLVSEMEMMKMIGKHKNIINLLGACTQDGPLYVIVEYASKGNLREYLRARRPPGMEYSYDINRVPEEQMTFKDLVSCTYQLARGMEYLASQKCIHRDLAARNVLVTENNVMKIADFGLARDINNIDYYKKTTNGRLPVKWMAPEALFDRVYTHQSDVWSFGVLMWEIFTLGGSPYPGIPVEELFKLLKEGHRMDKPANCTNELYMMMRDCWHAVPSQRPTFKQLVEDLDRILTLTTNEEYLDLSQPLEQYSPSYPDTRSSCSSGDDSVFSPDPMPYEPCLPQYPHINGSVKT
Particulars: read-out: FGFR2 (Kd nM). The gist of the method:
as §1

13 compounds from US20250368666A1, “INDAZOLE COMPOUNDS” (TYRA BIOSCIENCES, INC., priority 2022, published 2025) can be followed below.

T2 sequence (P22607 23-806 V555M): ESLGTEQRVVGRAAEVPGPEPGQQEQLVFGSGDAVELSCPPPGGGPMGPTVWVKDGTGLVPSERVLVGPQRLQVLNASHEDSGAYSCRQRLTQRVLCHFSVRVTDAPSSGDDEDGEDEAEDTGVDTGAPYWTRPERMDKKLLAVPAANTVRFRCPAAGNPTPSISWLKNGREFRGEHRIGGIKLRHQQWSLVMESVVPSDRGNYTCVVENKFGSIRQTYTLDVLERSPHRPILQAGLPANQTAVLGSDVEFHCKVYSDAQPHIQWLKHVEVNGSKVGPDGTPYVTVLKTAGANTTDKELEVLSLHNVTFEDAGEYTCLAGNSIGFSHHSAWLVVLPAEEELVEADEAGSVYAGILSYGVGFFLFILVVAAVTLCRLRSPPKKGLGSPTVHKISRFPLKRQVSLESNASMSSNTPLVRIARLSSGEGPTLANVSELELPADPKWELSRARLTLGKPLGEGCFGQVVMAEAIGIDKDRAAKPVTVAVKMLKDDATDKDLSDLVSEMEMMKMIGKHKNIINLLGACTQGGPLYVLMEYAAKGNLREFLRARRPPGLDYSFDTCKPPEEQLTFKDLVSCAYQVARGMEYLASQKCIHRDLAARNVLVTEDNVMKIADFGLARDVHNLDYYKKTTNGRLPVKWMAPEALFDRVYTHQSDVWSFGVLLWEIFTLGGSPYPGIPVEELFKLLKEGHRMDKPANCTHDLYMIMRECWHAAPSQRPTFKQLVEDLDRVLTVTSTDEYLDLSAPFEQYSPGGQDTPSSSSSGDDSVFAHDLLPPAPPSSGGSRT
T4 sequence (P11362 22-822): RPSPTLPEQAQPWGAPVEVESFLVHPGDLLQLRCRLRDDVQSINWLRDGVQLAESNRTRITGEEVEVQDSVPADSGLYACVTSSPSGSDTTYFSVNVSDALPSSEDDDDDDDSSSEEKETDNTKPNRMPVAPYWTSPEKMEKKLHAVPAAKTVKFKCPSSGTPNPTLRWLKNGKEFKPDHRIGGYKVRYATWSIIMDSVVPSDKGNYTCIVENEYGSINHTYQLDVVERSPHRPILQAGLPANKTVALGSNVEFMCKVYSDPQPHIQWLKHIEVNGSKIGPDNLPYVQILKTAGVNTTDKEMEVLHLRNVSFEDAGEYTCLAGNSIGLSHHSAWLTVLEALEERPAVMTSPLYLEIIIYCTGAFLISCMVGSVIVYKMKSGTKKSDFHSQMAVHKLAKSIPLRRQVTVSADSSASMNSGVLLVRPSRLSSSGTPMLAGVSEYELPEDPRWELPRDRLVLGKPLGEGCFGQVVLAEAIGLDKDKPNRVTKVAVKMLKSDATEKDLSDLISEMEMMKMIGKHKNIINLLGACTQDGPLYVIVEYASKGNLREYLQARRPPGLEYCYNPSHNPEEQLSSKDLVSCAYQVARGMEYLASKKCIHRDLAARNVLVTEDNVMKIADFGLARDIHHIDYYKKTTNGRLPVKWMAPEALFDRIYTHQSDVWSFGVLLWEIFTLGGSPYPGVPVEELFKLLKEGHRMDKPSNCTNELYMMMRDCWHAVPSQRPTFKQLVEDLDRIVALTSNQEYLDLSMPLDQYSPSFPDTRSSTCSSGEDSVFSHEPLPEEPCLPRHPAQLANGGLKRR
T1 sequence (P22455 22-802): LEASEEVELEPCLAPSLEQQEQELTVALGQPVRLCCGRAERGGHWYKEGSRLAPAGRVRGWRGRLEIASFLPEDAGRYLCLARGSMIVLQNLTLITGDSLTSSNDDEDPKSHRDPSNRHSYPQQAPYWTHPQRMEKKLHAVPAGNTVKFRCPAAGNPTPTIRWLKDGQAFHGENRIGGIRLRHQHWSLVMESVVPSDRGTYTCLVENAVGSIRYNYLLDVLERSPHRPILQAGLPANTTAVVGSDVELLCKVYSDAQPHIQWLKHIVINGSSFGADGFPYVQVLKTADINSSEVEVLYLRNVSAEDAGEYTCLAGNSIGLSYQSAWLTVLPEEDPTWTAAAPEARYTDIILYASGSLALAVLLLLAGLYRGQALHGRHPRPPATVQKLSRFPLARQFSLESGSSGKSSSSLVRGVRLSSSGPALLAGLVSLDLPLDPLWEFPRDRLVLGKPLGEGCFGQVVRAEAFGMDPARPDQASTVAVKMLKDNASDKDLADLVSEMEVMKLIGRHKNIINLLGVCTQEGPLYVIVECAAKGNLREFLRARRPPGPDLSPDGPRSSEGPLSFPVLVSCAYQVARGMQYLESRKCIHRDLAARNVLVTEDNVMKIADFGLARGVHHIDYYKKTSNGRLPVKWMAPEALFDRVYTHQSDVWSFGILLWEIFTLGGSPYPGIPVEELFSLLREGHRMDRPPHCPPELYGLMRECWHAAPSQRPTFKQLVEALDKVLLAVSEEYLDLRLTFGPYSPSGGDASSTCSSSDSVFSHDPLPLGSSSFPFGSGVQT
T3 sequence (P22607 23-806): as the sequence (P22607 23-806 V555M) above, with M533V counted along it

The term Kd denotes the free concentration of one partner at which half of the binding sites on the other are occupied at equilibrium, for simple one-to-one binding. As to `C[C@@H](Oc1ccc2[nH]nc(-c3cnc(N4CC(C)(N5CCOCC5)C4)c(F)c3)c2c1F)c1c(Cl)cncc1Cl` [Example 183, (R)-4-(1-(5-(5-(1-(3,5-dichloro-pyridin-4-yl)ethoxy)-4-fluoro-1H-indazol-3-yl)-3-fluoropyridin-2-yl)-3-methylazetidin-3-yl)morpholine], the Kd is 50 to 300 nM on FGFR4; 50 to 300 nM at FGFR3 (V555M); 50 to 300 nM at FGFR3; 300 to 1000 nM on FGFR1; more than 1000 nM on FGFR2.

As for `C[C@@H](Oc1ccc2[nH]nc(-c3ccc(N4CC(C)(CN5CCCC5)C4)nc3)c2c1F)c1c(Cl)cncc1Cl` [Example 191, (R)-5-(1-(3,5-dichloropyridin-4-yl)ethoxy)-4-fluoro-3-(6-(3-methyl-3-(pyrrolidin-1-ylmethyl)azetidin-1-yl)pyridin-3-yl)-1H-indazole], the Kd at FGFR4 lay in the range of 300 to 1000 nM; at FGFR3 (V555M), 1 to 50 nM; at FGFR3, 50 to 300 nM; on FGFR1, 300 to 1000 nM; on FGFR2, 300 to 1000 nM.

On to `C[C@@H](Oc1ccc2[nH]nc(-c3cnc(N4CC(C)(CS(C)(=O)=O)C4)c(F)c3)c2c1F)c1c(Cl)cncc1Cl` [Example 196, (R)-5-(1-(3,5-dichloropyridin-4-yl)ethoxy)-4-fluoro-3-(5-fluoro-6-(3-methyl-3-((methyl-sulfonyl)meth-yl)azetidin-1-yl)pyridin-3-yl)-1H-indazole], for which the Kd at FGFR4 was 300 to 1000 nM; on FGFR3 (V555M), 50 to 300 nM; on FGFR3, 300 to 1000 nM; at FGFR1 it was more than 1000 nM; on FGFR2 it was more than 1000 nM.

Take `C[C@@H](Oc1ccc2[nH]nc(-c3cnc(N4CC(C)(N5CCCC5)C4)c(F)c3)c2c1F)c1c(Cl)cncc1Cl` [Example 168, (R)-5-(1-(3,5-dichloropyridin-4-yl)ethoxy)-4-fluoro-3-(5-fluoro-6-(3-methyl-3-(pyrrolidin-1-yl)azetidin-1-yl)pyridin-3-yl)-1H-indazole]: the dissociation constant (Kd) lay in the range of 50 to 300 nM at FGFR4; 1 to 50 nM on FGFR3 (V555M); 1 to 50 nM on FGFR3; 50 to 300 nM on FGFR1; 50 to 300 nM on FGFR2.

For `COc1cc2[nH]nc(-c3ccc(N4CC(C)(CP(C)(C)=O)C4)nc3)c2cc1O[C@H](C)c1c(Cl)cncc1Cl` [Example 180, (R)-((1-(5-(5-(1-(3,5-dichloro-pyridin-4-yl)ethoxy)-6-meth-oxy-1H-inda-zol-3-yl)pyridin-2-yl)-3-methylazetidin-3-yl)methyl)dimethyl-phosphine oxide], the Kd on FGFR4, on FGFR3 (V555M), at FGFR3, on FGFR1 and at FGFR2 was 1 to 50 nM in each case.

`C[C@@H](Oc1ccc2[nH]nc(-c3ccc(N4CC(C)(CP(C)(C)=O)C4)nc3)c2c1F)c1c(Cl)cncc1Cl` [Example 187, (R)-((1-(5-(5-(1-(3,5-dichloro-pyridin-4-yl)ethoxy)-4-fluoro-1H-indazol-3-yl)pyridin-2-yl)-3-methylazetidin-3-yl)methyl)dimethyl-phosphine oxide]: the dissociation constant Kd was 300 to 1000 nM at FGFR4; 50 to 300 nM at FGFR3 (V555M); 50 to 300 nM at FGFR3; more than 1000 nM on FGFR1; 300 to 1000 nM at FGFR2.

For the compound `C[C@@H](Oc1ccc2[nH]nc(-c3cnc(N4CC(C)(CN5CCCC5)C4)c(F)c3)c2c1F)c1c(Cl)cncc1Cl` [Example 185, (R)-5-(1-(3,5-dichloropyridin-4-yl)ethoxy)-4-fluoro-3-(5-fluoro-6-(3-methyl-3-(pyrrolidin-1-ylmethyl)azetidin-1-yl)pyridin-3-yl)-1H-indazole], the Kd was 50 to 300 nM on FGFR4; 50 to 300 nM at FGFR3 (V555M); 50 to 300 nM on FGFR3; 300 to 1000 nM on FGFR1; 300 to 1000 nM at FGFR2.

`C[C@@H](Oc1ccc2[nH]nc(-c3cnc(N4CC(C)(NCC5CC5)C4)c(F)c3)c2c1F)c1c(Cl)cncc1Cl` [Example 174, (R)-N-(cyclo-propylmethyl)-1-(5-(5-(1-(3,5-dichloropyridin-4-yl)ethoxy)-4-fluoro-1H-indazol-3-yl)-3-fluoropyridin-2-yl)-3-methylazetidin-3-amine]: the Kd is 50 to 300 nM at FGFR4; 50 to 300 nM at FGFR3 (V555M); 50 to 300 nM at FGFR3; 300 to 1000 nM at FGFR1; more than 1000 nM at FGFR2.

On to `C[C@@H](Oc1ccc2[nH]nc(-c3cnc(N4CC(C)(CP(C)(C)=O)C4)c(F)c3)c2c1F)c1c(Cl)cncc1Cl` [Example 172, (R)-((1-(5-(5-(1-(3,5-dichloro-pyridin-4-yl)ethoxy)-4-fluoro-1H-inda-zol-3-yl)-3-fluoropyridin-2-yl)-3-methylazetidin-3-yl)methyl)dimethyl-phosphine oxide], for which the dissociation constant Kd on FGFR4 lay within 50 to 300 nM; on FGFR3 (V555M) it was 1 to 50 nM; on FGFR3 it was 50 to 300 nM; on FGFR1 it was 300 to 1000 nM; on FGFR2, 50 to 300 nM.

As for `C[C@@H](Oc1ccc2[nH]nc(-c3ccc(N4CC(C)(N5C[C@H]6C[C@@H]5CO6)C4)nc3)c2c1)c1c(Cl)cncc1Cl` [Example 231, (1R,4R)-5-(1-(5-(5-((R)-1-(3,5-dichloropyridin-4-yl)ethoxy)-1H-indazol-3-yl)pyridin-2-yl)-3-methylazetidin-3-yl)-2-oxa-5-aza-bicyclo[2.2.1]hep-tane], the Kd on FGFR4, on FGFR3 (V555M), at FGFR3, at FGFR1 and on FGFR2 was 1 to 50 nM in each case.

On to `C[C@@H](Oc1ccc2[nH]nc(-c3ccc(N4CC(C)(N5CC(C)(O)C5)C4)nc3)c2c1)c1c(Cl)cncc1Cl` [Example 157, 1-[1-[5-[5-[(1R)-1-(3,5-dichloro-4-pyridyl)ethoxy]-1H-indazol-3-yl]-2-pyridyl]-3-methyl-azetidin-3-yl]-3-methyl-azetidin-3-ol], for which the Kd on FGFR4, on FGFR3 (V555M), at FGFR3, on FGFR1 and on FGFR2 was 1 to 50 nM in each case.

As for `C[C@@H](Oc1ccc2[nH]nc(-c3cnc(N4CC(C)(N5CCCC5)C4)c(F)c3)c2c1)c1c(Cl)cncc1Cl` [Example 107, (R)-5-(1-(3,5-dichloropyridin-4-yl)ethoxy)-3-(5-fluoro-6-(3-methyl-3-(pyrrolidin-1-yl)azetidin-1-yl)pyridin-3-yl)-1H-indazole], the Kd on FGFR4, on FGFR3 (V555M), on FGFR3, at FGFR1 and on FGFR2 was 1 to 50 nM each time.

With `COc1cc2[nH]nc(-c3cnc(N4CC(C)(CP(C)(C)=O)C4)c(F)c3)c2cc1O[C@H](C)c1c(Cl)cncc1Cl` [Example 179, (R)-((1-(5-(5-(1-(3,5-dichloro-pyridin-4-yl)ethoxy)-6-methoxy-1H-indazol-3-yl)-3-fluoropyridin-2-yl)-3-methylazetidin-3-yl)methyl)dimethyl-phosphine oxide], the dissociation constant Kd at FGFR4, on FGFR3 (V555M), on FGFR3, at FGFR1 and on FGFR2 was 1 to 50 nM throughout.
